ChEMBL document CHEMBL1201862, “PubChem BioAssay data set” (2004)
Each block holds one compound with its values, some of them ahead of it. Active and inactive are the calls of the source.

How the values were obtained:
[1] = biological target: X-box-binding protein 1 (Homo sapiens, UniProt P17861); assay type: functional, Cricetulus griseus;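 further: confirmatory dose-response counter-screen serving a CHOP assay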
[2] = Luminescence-based counterscreen assay for KLF5 inhibitors: dose response cell-based high throughput screening assay to identify cytotoxic compounds using the IEC-6 intestinal epithelial cell line. [Related pubchem assays: 1700 (Primary screen.), 1834 (Confirmation screen.), 1858 (Summary AID.), 1905 (Counterscreen.)]; assay type: functional
[3] = test system: Streptococcus; assay: GAS UMAA2166 growth inhibition – luminescence, BacTiterGlo, counter-screen for streptokinase expression inhibitor project, dose response (AID 1915); assay type: functional, organism-based;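 further: potency for reduction of bacterial viability or growth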
[4] = test system: Streptococcus sp. 'group A'; assay: Streptococcus pyogenes SK(-)GAS viability under kanamycin – luminescence, BacTiterGlo, confirmation, counter-screen for streptokinase expression inhibitor project, dose response (AID 1900); assay type: functional, organism-based
[5] = test system: INS1; assay: INS-1E survival protection against cytokine death – cell-based, luminescence, retest, dose response (AID 449756); assay type: functional; conditions: Rattus norvegicus;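 further: cell death triggered by IL-1 beta plus TNF-alpha plus IFN-gamma mixture; protective hits raise ATP signal compared with cytokine alone wells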
[6] = biological target: T1, Neuropeptide Y receptor type 2 (Homo sapiens, UniProt P49146); assay: IC50 for human NPY-Y2 blockade – cell-based, counter-screen for NPY-Y1 antagonist project, dose response (AID 1278); assay type: functional
T1 sequence (P49146 whole entry): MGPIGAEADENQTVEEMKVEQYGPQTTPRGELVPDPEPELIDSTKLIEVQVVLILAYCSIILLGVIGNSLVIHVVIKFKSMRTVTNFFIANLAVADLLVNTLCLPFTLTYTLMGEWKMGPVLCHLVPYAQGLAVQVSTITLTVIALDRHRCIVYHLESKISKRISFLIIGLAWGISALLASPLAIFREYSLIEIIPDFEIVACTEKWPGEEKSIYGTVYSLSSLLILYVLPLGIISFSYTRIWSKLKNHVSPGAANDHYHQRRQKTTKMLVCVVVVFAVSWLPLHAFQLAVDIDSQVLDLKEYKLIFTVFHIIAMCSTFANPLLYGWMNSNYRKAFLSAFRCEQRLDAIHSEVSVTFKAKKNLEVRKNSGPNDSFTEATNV

[7] = biological target: T2, Neuropeptide Y receptor type 1 (Homo sapiens, UniProt P25929); assay: IC50 of human NPY-Y1 blockers – cell-based, dose response (AID 1277); assay type: functional
T2 sequence (P25929 whole entry): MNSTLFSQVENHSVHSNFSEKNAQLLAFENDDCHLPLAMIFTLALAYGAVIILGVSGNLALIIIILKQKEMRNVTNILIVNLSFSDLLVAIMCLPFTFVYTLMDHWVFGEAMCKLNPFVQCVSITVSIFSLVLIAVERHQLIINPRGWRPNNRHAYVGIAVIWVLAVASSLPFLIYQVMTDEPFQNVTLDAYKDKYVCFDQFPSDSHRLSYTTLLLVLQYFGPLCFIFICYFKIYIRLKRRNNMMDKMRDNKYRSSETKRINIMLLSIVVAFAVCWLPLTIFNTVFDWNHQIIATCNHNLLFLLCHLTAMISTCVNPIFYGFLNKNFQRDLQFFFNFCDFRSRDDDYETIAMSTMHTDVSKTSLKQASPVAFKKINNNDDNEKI

[8] = test system: HT-1080; assay: HT1080 cell viability loss – fluorescence readout (AID 620); assay type: functional, cell-based; conditions: Homo sapiens
[9] = biological target: Luciferin 4-monooxygenase (Photinus pyralis, UniProt P08659); assay: Counter Screen for Luciferase-based Assay Positives. [Related pubchem assays: 620, 618, 411 ]
[10] = biological target: Estrogen receptor beta (Homo sapiens, UniProt Q92731);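 further: recombinant ER-beta bound to coactivator SRC1 peptide in presence of estradiol agonist; inhibitors block coactivator peptide binding and lower the FRET signal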
[11] = biological target: T3, Bcl-2-related protein A1 (Mus musculus, UniProt Q07440); assay: Bfl-1 binding inhibitors, SAR follow-up, biochemical, fluorescence polarization (AID 1070)
T3 sequence (Q07440 whole entry): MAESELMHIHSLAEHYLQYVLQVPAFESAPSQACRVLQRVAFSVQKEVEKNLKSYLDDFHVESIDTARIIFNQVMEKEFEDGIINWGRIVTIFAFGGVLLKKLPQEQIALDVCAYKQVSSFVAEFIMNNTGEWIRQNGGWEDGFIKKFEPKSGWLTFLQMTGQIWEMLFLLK

[12] = biological target: Glyceraldehyde-3-phosphate dehydrogenase (Homo sapiens, UniProt P04406)
[13] = biological target: T3, Bcl-2-related protein A1; assay: small-molecule antagonists of Bfl-1/BH3 interaction – biochemical, TR-FRET, mouse Bfl-1, confirmation (AID 621);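 further: TR-FRET binding of GST-Bfl-1 to FITC-labelled Bid peptide via terbium antibody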
[14] = antiviral protection against BTV-induced cell death – arbovirus, BSR cells, confirmation (AID 1250); assay type: functional;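 further: protection from viral cytopathic effect measured as cell viability by ATP luminescence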
[15] = fluconazole-exposed Candida albicans growth modulators – fluorescence, retest, confirmation (AID 2467); assay type: functional, cell-based
[16] = HEK-293T cell viability reduction – luminescence, B-cell screen hits, cytotoxicity control for BCR NF-kB inhibitor project, dose response (AID 489021); assay type: functional, cell-based;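 further: HEK-293T cells carrying an NF-kB luciferase reporter; cells exposed to compound for about 14 hours before viability readout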
[17] = NIH-3T3 fibroblast cytotoxicity, dose response, cytotoxicity control, cell-based, fluorescence, Alamar Blue, secondary assay (AID 2327); assay type: functional;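 further: NIH-3T3 mouse fibroblasts cultured with fluconazole at 8 µg/mL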
[18] = biological target: T4, Heat shock factor protein 1 (Mus musculus, UniProt P38532); assay: decrease of HSF1-responsive luciferase luminescence – cell-based, NIH3T3, dose retest, confirmation (AID 2382); assay type: functional;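 further: NIH3T3 fibroblasts with HSF1-driven luciferase reporter stressed by proteasome inhibitor MG132; luminescence from HSF1-driven luciferase expression after 8 hours of MG132 stress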
T4 sequence (P38532 whole entry): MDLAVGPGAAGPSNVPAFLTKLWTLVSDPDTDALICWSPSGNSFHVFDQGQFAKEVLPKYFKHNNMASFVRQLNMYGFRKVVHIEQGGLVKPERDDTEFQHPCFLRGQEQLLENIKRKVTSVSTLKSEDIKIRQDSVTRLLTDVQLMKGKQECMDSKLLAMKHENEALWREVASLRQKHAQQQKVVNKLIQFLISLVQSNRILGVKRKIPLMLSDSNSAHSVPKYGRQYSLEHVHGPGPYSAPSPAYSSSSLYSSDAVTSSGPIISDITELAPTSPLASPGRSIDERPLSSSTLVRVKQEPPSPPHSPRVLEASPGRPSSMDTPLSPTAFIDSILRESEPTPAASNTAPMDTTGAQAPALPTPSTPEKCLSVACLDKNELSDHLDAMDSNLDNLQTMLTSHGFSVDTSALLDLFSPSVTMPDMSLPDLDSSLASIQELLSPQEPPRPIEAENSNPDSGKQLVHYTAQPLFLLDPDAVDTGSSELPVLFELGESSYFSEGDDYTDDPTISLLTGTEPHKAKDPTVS

[19] = biological target: T2, Neuropeptide Y receptor type 1; assay type: functional
[20] = biological target: NADPH oxidase 1 (Homo sapiens, UniProt Q9Y5S8); assay type: functional, cell-based;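 further: Cell-based assay with luminescence read-out, IC50 derived from inhibitor dose-response curves; intracellular ROS from endogenous NOX1 in intact HT29 colon cancer cells; potency of inhibitors that lower the ROS luminescence signal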
[21] = viability inhibitors of stage V gametocytes – luminescence, dose response (AID 1117278); assay type: functional, cell-based;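 further: gametocytes exposed to compound for 24 hours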
[22] = biological target: T5, Estrogen receptor (Homo sapiens, UniProt P03372); assay: ERα coactivator recruitment enhancers – biochemical, TR-FRET, ERα LBD, dose response (AID 737)
T5 sequence (P03372 whole entry): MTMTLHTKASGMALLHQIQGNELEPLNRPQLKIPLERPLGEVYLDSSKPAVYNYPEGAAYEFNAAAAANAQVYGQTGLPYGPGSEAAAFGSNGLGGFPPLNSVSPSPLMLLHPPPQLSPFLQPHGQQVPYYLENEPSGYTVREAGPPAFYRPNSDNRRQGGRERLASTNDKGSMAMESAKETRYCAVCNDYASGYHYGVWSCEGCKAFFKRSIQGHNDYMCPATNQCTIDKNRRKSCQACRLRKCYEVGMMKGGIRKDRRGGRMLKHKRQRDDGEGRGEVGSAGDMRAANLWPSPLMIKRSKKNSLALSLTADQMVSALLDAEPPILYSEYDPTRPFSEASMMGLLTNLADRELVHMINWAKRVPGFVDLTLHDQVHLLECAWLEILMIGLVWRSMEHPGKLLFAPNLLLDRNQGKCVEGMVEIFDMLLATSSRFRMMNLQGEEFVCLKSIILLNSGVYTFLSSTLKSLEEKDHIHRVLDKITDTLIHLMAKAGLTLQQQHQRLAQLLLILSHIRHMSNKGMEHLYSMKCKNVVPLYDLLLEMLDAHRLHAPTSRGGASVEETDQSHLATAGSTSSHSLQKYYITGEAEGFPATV

[23] = viability loss in human Jurkat cells – cell-based, luminescence, cytotoxicity control for P. falciparum gametocyte viability project, dose response (AID 1117277); assay type: functional;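 further: potency reflects loss of cellular ATP meaning fewer viable cells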
[24] = biological target: Acyl-homoserine lactone acylase PvdQ (Pseudomonas aeruginosa (strain LESB58), UniProt Q9I194); assay: PvdQ acylase enzyme activity blockers – biochemical, fluorescence, plate reader and imaging, cherry-picks, dose response (AID 493231)
[25] = biological target: Neurotensin receptor type 1 (Homo sapiens, UniProt P30989); assay type: functional;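 further: Image-based confirmatory dose-response assay measuring agonist activity at NTR1; NTR1-expressing U2OS osteosarcoma cells imaged for beta-arrestin GFP spot formation; agonist potency where compounds increase beta-arrestin recruitment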
[26] = biological target: T6, Microphthalmia-associated transcription factor (Homo sapiens, UniProt O75030); assay: reducers of TRPM1 reporter luminescence, concentration series – cell-based, SK-MEL-5, cherry-picked, set 3, MITF inhibitor project, dose response (AID 493073); assay type: functional;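 further: SK-MEL-5 melanoma cells with luciferase driven by the MITF target TRPM1 promoter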
T6 sequence (O75030 whole entry): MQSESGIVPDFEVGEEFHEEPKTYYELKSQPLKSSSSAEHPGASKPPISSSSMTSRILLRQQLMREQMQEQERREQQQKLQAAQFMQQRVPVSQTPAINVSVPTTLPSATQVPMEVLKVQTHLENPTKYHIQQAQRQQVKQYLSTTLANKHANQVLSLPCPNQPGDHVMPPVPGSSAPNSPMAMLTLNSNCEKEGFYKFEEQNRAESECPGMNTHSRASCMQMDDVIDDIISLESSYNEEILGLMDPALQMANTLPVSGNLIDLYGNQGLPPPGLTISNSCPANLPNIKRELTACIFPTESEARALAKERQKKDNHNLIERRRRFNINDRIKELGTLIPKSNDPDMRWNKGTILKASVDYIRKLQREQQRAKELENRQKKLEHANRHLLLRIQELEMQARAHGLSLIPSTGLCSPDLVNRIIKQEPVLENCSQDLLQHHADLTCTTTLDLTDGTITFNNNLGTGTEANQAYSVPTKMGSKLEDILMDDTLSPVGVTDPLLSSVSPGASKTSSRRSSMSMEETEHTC

- Absolute IC50 (XBP1) [1]: 10 µM
Compound: CCCOc1ccc(N2C(=O)CC(SC(=NC)Nc3ccc(F)cc3)C2=O)cc1 (stereo unspecified)

Compound: COc1cccc(/C=N/NC(=O)c2cc3c(OC)ccc(OC)c3[nH]2)c1O
- IC50 [2]: 16.3 µM (not active)
- EC50 [3]: 3.31 µM (active)
- EC50 [4]: 1.23 µM (active)
- AC50 [5]: 4.13 µM (active)

- IC50 [6]: > 35 µM (not active)
- IC50 [7]: 12.3 µM (not active)
Compound: CCC(C)(C(=O)NC1CCCCC1)N(Cc1ccco1)C(=O)Cc1cccs1 (stereo unspecified)

Compound: COc1ccc(C(=O)Nc2ccc3c(c2)OCCO3)cc1
- EC50 [8]: > 50 µM (not active)
- EC50 [9]: < 0.2 µM (active)

- IC50 [10]: > 50 µM (not active)
Compound: O=C1Nc2ccccc2C12OCCS2 (stereo unspecified)

- IC50 [11]: 15.9 µM (active)
- IC50 [12]: > 100 µM (not active)
- IC50 [13]: 8.29 µM (active)
Compound: C[C@@H]1CN(C2=C(Cl)C(=O)N(c3ccc(Cl)c(Cl)c3)C2=O)[C@@H](C)CN1

Compound: C=CCn1c(SCc2c(C)noc2C)nnc1C1COc2ccccc2O1 (stereo unspecified)
- IC50 [14]: 24.7 µM (active)

Compound: Cc1ccc(-[n+]2c(-c3ccccc3)cn3c2CCc2ccccc2-3)c(C)c1
- EC50 [15]: 1.24 µM (active)
- IC50 [16]: > 80 µM (inactive)
- IC50 [6]: 5.9 µM (active)
- EC50 [17]: 96.9 µM (active)
- IC50 [7]: 3.65 µM (active)
- AC50 [5]: 1.91 µM (active)

- EC50 [18]: > 195 µM (not active)
- IC50 [19]: 13.3 µM (not active)
Compound: Cc1cccc(CSCCNC(=O)COc2ccc(Cl)cc2)c1

Compound: COc1ccc(S(=O)(=O)N2CCN(c3ccccc3OC)CC2)cc1OC
- IC50 [14]: 23.3 µM (active)

- IC50 [20]: > 17 µM (not active)
Compound: FC(F)(F)Oc1ccc(/C=N/Nc2c(Cl)cncc2Cl)cc1

Compound: COC(=O)c1c(-c2ccncc2)csc1NC(=O)c1ccoc1C
- IC50 [21]: > 109 µM (inactive)
- EC50 [22]: 23.1 µM (active)
- IC50 [23]: > 83.3 µM (inactive)

- IC50 [11]: 1.26 µM (active)
- IC50 [12]: > 100 µM (not active)
- IC50 [13]: 4.83 µM (active)
Compound: COc1cccc(N2CCN(C3=C(Cl)C(=O)N(c4ccc(Cl)c(Cl)c4)C3=O)CC2)c1

- IC50 [20]: > 17 µM (not active)
Compound: O=[N+]([O-])c1cc(O/N=C/c2ccccc2)cc([N+](=O)[O-])c1

Compound: Fc1ccc(CNCc2cccc(Br)c2)cc1
- AC50 [24]: 30.2 µM (active)

- EC50 [22]: 12.9 µM (active)
Compound: COc1ccc(-c2ccc(-c3noc(-c4cccs4)n3)c(OC)n2)cc1

- IC50 [10]: > 50 µM (not active)
Compound: CCCNc1nc(N2CCOCC2)nc(N2CCOCC2)n1

- EC50 [25]: 17.3 µM (active)
- AC50 [26]: 5.36 µM (active)
Compound: CCOC(=O)c1ccc(NC(=O)c2ccc(C)c(S(=O)(=O)N3CCOCC3)c2)cc1
